Assays:
PPAR alpha = target: T1, PPAR alpha (Rattus norvegicus, UniProt P37230); assay: PPAR alpha transactivation assay in COS-1 cells; assay type: cell-based; conditions: at 10 μM, mean±SD n=3
T1 construct: 25 ng of vector DNA carrying PPAR alpha, delta or gamma; expressed in transfected cells; host or cells: COS-1 (African green monkey kidney cells)
T1 sequence (P37230 1-468): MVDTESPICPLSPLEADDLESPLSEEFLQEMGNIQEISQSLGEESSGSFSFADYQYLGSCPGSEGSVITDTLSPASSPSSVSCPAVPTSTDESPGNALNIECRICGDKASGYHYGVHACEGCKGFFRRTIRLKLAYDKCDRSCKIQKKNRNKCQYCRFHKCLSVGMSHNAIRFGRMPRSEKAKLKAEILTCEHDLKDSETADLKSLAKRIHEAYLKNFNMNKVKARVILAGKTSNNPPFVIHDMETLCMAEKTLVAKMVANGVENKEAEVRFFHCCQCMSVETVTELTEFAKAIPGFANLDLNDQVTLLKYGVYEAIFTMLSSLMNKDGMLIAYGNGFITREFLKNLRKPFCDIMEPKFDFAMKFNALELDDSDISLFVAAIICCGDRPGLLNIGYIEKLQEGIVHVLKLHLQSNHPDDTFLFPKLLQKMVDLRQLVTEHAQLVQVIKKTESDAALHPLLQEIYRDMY

[1] = Plasma levels of PFOA after 11 days oral dosing in SD rats (LC/MS/MS); assay type: in vivo, rat; conditions: 25 mg/kg oral daily for 11 days, 24 hours after final administration
Protocol: The study consisted of one control group of 8 male CD Sprague Dawley rats (8-10-weeks old; obtained from Harlan, UK) and 4 test groups that contained 4 rats. Animals received powdered RM1 diet ad libitum for the duration of the study. […] All chemicals were dissolved in Mazola corn oil (at 2.5 mg/ml) and test compounds were administered at 10 ml/kg bodyweight. Control animal received Mazola corn oil only. All animals were sacrificed after 11 days. Animals were killed by exposure to rising concentrations of CO2, and blood was harvested into lithium/heparin tubes for plasma.
Rat plasma samples were denatured by adding acetonitrile, and the amount of perfluorooctanoic acid (PFOA) present was determined by LC/MS/MS.

[2] = 21-day diet study, bodyweights of SD rats; assay type: in vivo, rat; conditions: 300 ppm in diet, 21 days
Protocol: This experiment investigated the effect of compounds of different % linearity on body weight over a longer study period.
The diet study consisted of one control group of 4 male animals and 4 test groups of 4 male animals (as specified earlier in this Example). Animals received powdered RM1 diet alone, or RM1 diet containing 300 ppm XEN1001 or XEN1002, ad libitum for the duration of the study. Bodyweights were measured daily for 21 days.

Fold activation of PPAR alpha, positive control (PPAR alpha) [fold]	Structure (SMILES)	Plasma concentration of PFOA (free acid) [1]	Lost bodyweight up to day [2] [days]	Weight loss compared with XEN1001 [2]
8.88 ± 1.94	Cc1cccc(Nc2cc(Cl)nc(SCC(=O)O)n2)c1C [Wyeth14643]			
	N.O=C(O)C(F)(F)C(F)(F)C(F)(F)C(F)(F)C(F)(F)C(F)(F)C(F)(F)F [XEN1002, Ammoniumperfluorooctanoate]	equimolar concentrations of PFOA	10	more pronounced

— patent publication US20060052451A1, “Method” (priority 2002, published 2006)
